Target: T1, chimeric human H3 receptor (Homo sapiens, UniProt Q9Y5N1)
T1 construct: rat Galpha-i2 (Gnai2, rat); made in house; host or cells: Sf9 insect cells (baculovirus); P2 membranes
Assay: Chimeric human H3 receptor screening GTP binding assay (inhibition of histamine-stimulated GTP-gamma35S binding, Example 8)
Format: biochemical
Settings: 1 h; assay described in Example 8; symbol "!" in column headed Ki; read-out: Ki ("!": percent inhibition of agonist-induced GTP-gammaS binding to H3)
In short: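 Sf9 membranes co-expressing chimeric human H3 receptor and heterotrimeric G-protein (35 μg protein) incubated 60 min at room temperature with 4 μM compound, 1 μM histamine and 125 pM GTP-gamma35S in pH 7.4 buffer with 10 μM GDP. Filter-bound radioactivity, nonspecific (10 μM GTP-gammaS) subtracted, reported as % inhibition of histamine signal.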

T1 sequence (Q9Y5N1 with tags, fused parts or gaps): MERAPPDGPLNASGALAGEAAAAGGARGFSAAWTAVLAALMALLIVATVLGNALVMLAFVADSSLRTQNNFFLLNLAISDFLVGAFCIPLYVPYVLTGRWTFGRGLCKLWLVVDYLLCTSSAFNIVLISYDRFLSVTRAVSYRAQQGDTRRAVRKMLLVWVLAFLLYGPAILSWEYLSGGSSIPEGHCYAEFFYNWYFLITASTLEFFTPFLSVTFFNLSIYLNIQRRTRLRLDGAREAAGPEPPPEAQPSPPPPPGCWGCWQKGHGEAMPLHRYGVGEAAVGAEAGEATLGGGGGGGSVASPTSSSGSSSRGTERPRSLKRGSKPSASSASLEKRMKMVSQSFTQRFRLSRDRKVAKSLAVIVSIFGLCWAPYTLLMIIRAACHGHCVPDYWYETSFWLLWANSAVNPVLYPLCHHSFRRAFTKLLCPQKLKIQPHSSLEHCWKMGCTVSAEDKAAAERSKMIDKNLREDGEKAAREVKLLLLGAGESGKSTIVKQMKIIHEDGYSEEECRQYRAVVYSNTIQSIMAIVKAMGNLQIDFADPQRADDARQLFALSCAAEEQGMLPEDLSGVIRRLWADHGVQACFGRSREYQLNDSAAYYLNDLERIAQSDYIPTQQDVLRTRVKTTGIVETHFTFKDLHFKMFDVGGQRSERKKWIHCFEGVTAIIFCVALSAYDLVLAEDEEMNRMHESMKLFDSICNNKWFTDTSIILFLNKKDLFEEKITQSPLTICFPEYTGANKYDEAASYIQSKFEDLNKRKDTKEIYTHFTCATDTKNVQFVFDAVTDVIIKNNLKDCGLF

Inhibition at 4 µM, ≥ 90%:
CCCc1c(C(=O)N2CCc3cnc(N4CCN(C5CCC5)CC4)nc3CC2)cnn1-c1ccccc1 [Compound 508, 2-(4-cyclobutylpiperazin-1-yl)-7-[(1-phenyl-5-propyl-1H-pyrazol-4-yl)carbonyl]-6,7,8,9-tetrahydro-5H-pyrimido[4,5-d]azepine]
CCn1nc(C)c(Br)c1C(=O)N1CCc2cnc(N3CCN(C4CCC4)CC3)nc2CC1 [Compound 509, 7-[(4-bromo-1-ethyl-3-methyl-1H-pyrazol-5-yl)carbonyl]-2-(4-cyclobutylpiperazin-1-yl)-6,7,8,9-tetrahydro-5H-pyrimido[4,5-d]azepine]
O=C(c1c(-c2ccccc2)nnc2ccccc12)N1CCc2cnc(N3CCN(C4CCC4)CC3)nc2CC1 [Compound 510, 2-(4-cyclobutylpiperazin-1-yl)-7-[(3-phenylcinnolin-4-yl)carbonyl]-6,7,8,9-tetrahydro-5H-pyrimido[4,5-d]azepine]
O=C(c1cnn(-c2ccccc2)c1C(F)(F)F)N1CCc2cnc(N3CCN(C4CCC4)CC3)nc2CC1 [Compound 511, 2-(4-cyclobutylpiperazin-1-yl)-7-{[1-phenyl-5-(trifluormethyl)-1H-pyrazol-4-yl]carbonyl}-6,7,8,9-tetrahydro-5H-pyrimido[4,5-d]azepine]
CCCc1c(C(=O)N2CCc3cnc(N4CCN(C5CCC5)CC4)nc3CC2)cnn1-c1ccc(Cl)cc1 [Compound 512, 7-{[1-(4-chlorophenyl)-5-propyl-1H-pyrazol-4-yl]carbonyl}-2-(4-cyclobutylpiperazin-1-yl)-6,7,8,9-tetrahydro-5H-pyrimido[4,5-d]azepine]
O=C(Cc1cccc(F)c1)N1CCc2cnc(N3CCN(C4CCC4)CC3)nc2CC1 [Compound 513, 2-(4-cyclobutylpiperazin-1-yl)-7-[(3-fluorophenyl)acetyl]-6,7,8,9-tetrahydro-5H-pyrimido[4,5-d]azepine]
Cc1cccc(CC(=O)N2CCc3cnc(N4CCN(C5CCC5)CC4)nc3CC2)c1 [Compound 514, 2-(4-cyclobutylpiperazin-1-yl)-7-[(3-methylphenyl)acetyl]-6,7,8,9-tetrahydro-5H-pyrimido[4,5-d]azepine]
Cc1ccc(CC(=O)N2CCc3cnc(N4CCN(C5CCC5)CC4)nc3CC2)cc1 [Compound 515, 2-(4-cyclobutylpiperazin-1-yl)-7-[(4-methylphenyl)acetyl]-6,7,8,9-tetrahydro-5H-pyrimido[4,5-d]azepine]
O=C(Cc1ccc(F)cc1)N1CCc2cnc(N3CCN(C4CCC4)CC3)nc2CC1 [Compound 516, 2-(4-cyclobutylpiperazin-1-yl)-7-[(4-fluorophenyl)acetyl]-6,7,8,9-tetrahydro-5H-pyrimido[4,5-d]azepine]
O=C(Cc1ccccc1F)N1CCc2cnc(N3CCN(C4CCC4)CC3)nc2CC1 [Compound 517, 2-(4-cyclobutylpiperazin-1-yl)-7-[(2-fluorophenyl)acetyl]-6,7,8,9-tetrahydro-5H-pyrimido[4,5-d]azepine]
O=C(Cc1ccc(-c2ccccc2)cc1)N1CCc2cnc(N3CCN(C4CCC4)CC3)nc2CC1 [Compound 518, 7-(biphenyl-4-ylacetyl)-2-(4-cyclobutylpiperazin-1-yl)-6,7,8,9-tetrahydro-5H-pyrimido[4,5-d]azepine]
CSc1ccc(CC(=O)N2CCc3cnc(N4CCN(C5CCC5)CC4)nc3CC2)cc1 [Compound 519, 2-(4-cyclobutylpiperazin-1-yl)-7-{[4-(methylthio)phenyl]acetyl}-6,7,8,9-tetrahydro-5H-pyrimido[4,5-d]azepine]
O=C(Cc1ccc(OCc2ccccc2)cc1)N1CCc2cnc(N3CCN(C4CCC4)CC3)nc2CC1 [Compound 520, 7-{[4-(benzyloxy)phenyl]acetyl}-2-(4-cyclobutylpiperazin-1-yl)-6,7,8,9-tetrahydro-5H-pyrimido[4,5-d]azepine]
CC(C)c1ccc(CC(=O)N2CCc3cnc(N4CCN(C5CCC5)CC4)nc3CC2)cc1 [Compound 521, 2-(4-cyclobutylpiperazin-1-yl)-7-[(4-isopropylphenyl)acetyl]-6,7,8,9-tetrahydro-5H-pyrimido[4,5-d]azepine]
O=C(Cc1ccc2ccccc2c1)N1CCc2cnc(N3CCN(C4CCC4)CC3)nc2CC1 [Compound 522, 2-(4-cyclobutylpiperazin-1-yl)-7-(2-naphthylacetyl)-6,7,8,9-tetrahydro-5H-pyrimido[4,5-d]azepine]
Cc1onc(-c2c(Cl)cccc2Cl)c1C(=O)N1CCc2cnc(N3CCN(C4CCC4)CC3)nc2CC1 [Compound 523, 2-(4-cyclobutylpiperazin-1-yl)-7-{[3-(2,6-dichlorophenyl)-5-methylisoxazol-4-yl]carbonyl}-6,7,8,9-tetrahydro-5H-pyrimido[4,5-d]azepine]
Cc1nc(-c2ccc(C(F)(F)F)cc2)sc1C(=O)N1CCc2cnc(N3CCN(C4CCC4)CC3)nc2CC1 [Compound 524, 2-(4-cyclobutylpiperazin-1-yl)-7-({4-methyl-2-[4-(trifluoromethyl)phenyl]-1,3-thiazol-5-yl}carbonyl)-6,7,8,9-tetrahydro-5H-pyrimido[4,5-d]azepine]
Cc1nc(C)c(C(=O)N2CCc3cnc(N4CCN(C5CCC5)CC4)nc3CC2)s1 [Compound 525, 2-(4-cyclobutylpiperazin-1-yl)-7-[(2,4-dimethyl-1,3-thiazol-5-yl)carbonyl]-6,7,8,9-tetrahydro-5H-pyrimido[4,5-d]azepine]
O=C(c1nsc(Cl)c1Cl)N1CCc2cnc(N3CCN(C4CCC4)CC3)nc2CC1 [Compound 526, 2-(4-cyclobutylpiperazin-1-yl)-7-[(4,5-dichloroisothiazol-3-yl)carbonyl]-6,7,8,9-tetrahydro-5H-pyrimido[4,5-d]azepine]
O=C(c1csnn1)N1CCc2cnc(N3CCN(C4CCC4)CC3)nc2CC1 [Compound 527, 2-(4-cyclobutylpiperazin-1-yl)-7-(1,2,3-thiadiazol-4-ylcarbonyl)-6,7,8,9-tetrahydro-5H-pyrimido[4,5-d]azepine]
Cc1nnsc1C(=O)N1CCc2cnc(N3CCN(C4CCC4)CC3)nc2CC1 [Compound 528, 2-(4-cyclobutylpiperazin-1-yl)-7-[(4-methyl-1,2,3-thiadiazol-5-yl)carbonyl]-6,7,8,9-tetrahydro-5H-pyrimido[4,5-d]azepine]
O=C(c1csc(-c2cccnc2)n1)N1CCc2cnc(N3CCN(C4CCC4)CC3)nc2CC1 [Compound 529, 2-(4-cyclobutylpiperazin-1-yl)-7-[(2-pyridin-3-yl-1,3-thiazol-4-yl)carbonyl]-6,7,8,9-tetrahydro-5H-pyrimido[4,5-d]azepine]

Reference: patent US20080051387A1, “TETRAHYDROPYRIDO[3,4-D]PYRIMIDINES AND RELATED ANALOGUES” (priority 2006, published 2008)
